For 4 compounds, zone of inhibition and Activity results are on record in ChEMBL document CHEMBL1159213, “Terezines A-D: new amino acid-derived bioactive metabolites from the coprophilous fungus Sporormiella teretispora” (1995).

Holding throughout (assay type): functional
One assay relates to Staphylococcus aureus. The assay is described as follows: Antibacterial activity against Staphylococcus aureus ATCC 29213 at 100 ug/disk by standard disk assay. The following applies: read-out: IZ.
A further assay has as its system Sordaria fimicola. The assay is described as follows: Antifungal activity against Sordaria fimicola NRRL 6459 assessed as reduction in radial growth at 200 ug/disk by centerpoint inoculation disk assay. Set-up: scale not given: the % may be the effect or the level left.
A further assay relates to Bacillus subtilis. The assay is described as follows: Antibacterial activity against Bacillus subtilis ATCC 6051 at 100 ug/disk by standard disk assay. The settings on record: read-out: IZ.
A further assay concerns Candida albicans. The assay is described as follows: Antifungal activity against Candida albicans ATCC 14053 at 200 ug/disk by standard disk assay. The following applies: read-out: IZ.
The test system of another assay is Ascobolus. Nature of the assay: Antifungal activity against Ascobolus furfuraceus NRRL 6460 assessed as reduction in radial growth at 200 ug/disk by centerpoint inoculation disk assay. Details: scale not given: the % may be the effect or the level left.

Take `COc1nc(C(C)C)c(O)nc1[C@H](O)c1ccccc1` [TEREZINE A]: the zone of inhibition at 100 µg/disc with Staphylococcus aureus and in the assay on Bacillus subtilis was 8 mm throughout. Also, the Activity with Sordaria fimicola and in the assay with Ascobolus was 95% each time. Also, the zone of inhibition at 200 µg/disc in the assay with Candida albicans turned out to be 8 mm.
With `COC1=N[C@](OC)(C(C)C)C(=O)N[C@@]1(O)[C@H](O)c1ccccc1` [TEREZINE B], the zone of inhibition at 100 µg/disc in the assay on Bacillus subtilis was determined as 8 mm.
With `COC1=N[C@@](OC)(C(C)C)C(=O)N[C@@]1(O)[C@H](O)c1ccccc1` [TEREZINE C], the zone of inhibition at 100 µg/disc with Staphylococcus aureus and in the assay on Bacillus subtilis was 8 mm in each case. Besides, the Activity in the assay on Sordaria fimicola is listed as 41%.
Regarding `CC(C)=CCc1cccc2c(C[C@@H]3NC(=O)[C@H](C)NC3=O)c[nH]c12` [TEREZINE D], the Activity in the assay on Sordaria fimicola is recorded as 50%.
